Common to all, as to format: physicochemical
A short description of data set [1]: Salt tolerance / solubility of surfactant solutions in DW, SW and FW. Particulars: for Solubility and salt tolerance in DW, SW and FW: 10 wt % solutions in DW; for Solubility and salt tolerance in DW, SW and FW / Precipitation or phase separation of solutions in FW, SW and DW / Precipitation or phase separation in formation water (FIG. 5) / Precipitation or phase separation in seawater (FIG. 4): 90 days at 90° C.; for Solubility in simulated SW and FW: up to 90 days at 90° C. The method, then: 10 wt % solutions of OPAC, OPAS, and OPAH were prepared in DW, SW, and FW and kept in the oven for 90 days at 90° C.

Data set [2] can be described thus: Thermogravimetric analysis (TGA), thermal stability. Conditions: 20° C./min, nitrogen; for Thermal stability by TGA, stable up to: 30-500° C. The protocol:
TGA graph was obtained using SDT Q600 machine (TA instrument) with continuous heating at 20° C./min. The heating range 30-500° C. with a stable flow of nitrogen at 100 mL/min.

Data set [3] in a line: Surface tension, force tensiometer with Wilhelmy plate. Particulars: water. The method, then: Surface activities of OPAC, OPAS, and OPAH were determined using a force tensiometer with a platinum Wilhelmy plate (Sigma 702, Biolin Scientific). The test temperatures were 30° C. and 60° C. The plate was flushed with deionized water before heating it red hot to ensure it was properly cleaned. The surface tension of deionized water was measured three times to check if the cleanup procedure yielded repeatable results. The samples were covered to minimize evaporation, but with enough space to let the plate go through the covering during the measurement.
The surface tension data was used to estimate other properties using the following equations:
[formula] [formula] [formula] where cmc is critical micelle concentration, γ0 represents surface tension of water without surfactant, γcmc is surface tension at cmc, πcmc Represents the ability of the surfactant to reduce the surface tension, rmax is the maximum surface access, Avogadro number is represented by NA, dγ/dlnC is the slope, C represents the concentration of surfactant, temperature, and gas constant are represented by T and R, respectively, Amin is the minimum area per molecule, and the values of n is 1 for zwitterionic surfactants. Synthesis

“Also recorded” adds a separate entry of the source.

As to “Oleyl Polyoxyethylene Amidopropyl Hydroxy Sulfobetaine [OPAH]”, in data set [1], the “Solubility and salt tolerance in DW, SW and FW” value (from here on “Solubility and salt tolerance”) was “compatible and soluble with all kinds of water; also recorded: excellent solubility”; the “Precipitation or phase separation of solutions in FW, SW and DW” value is “no precipitation or phase separation was detected”; the “Precipitation or phase separation in formation water (FIG. 5)” value is on record as “no signs of precipitation or phase separation”; the “Precipitation or phase separation in seawater (FIG. 4)” value is “no signs of precipitation or phase separation”. The “Solubility in simulated SW and FW” value in data set [1] is given as “soluble”. In addition, in data set [2], the “Thermal stability by TGA, stable up to” value was around 300 °C; the “Initial loss in weight (TGA; associated with water and solvent)” value (“Initial loss in weight” below) is on record as 29%; the “Temperature of big weight loss / decomposition temperature (TGA)” value worked out at 307 °C. Moreover, in data set [3] (30° C.), the “Amin (minimum area per molecule)” value came to 0.62 nm^2, the cmc was found to be 7.1e-05 mol/L, the “Γmax × 10^6 (maximum surface excess)” value worked out at 2.66 mol m^−2 and the “γcmc (surface tension at cmc)” value amounted to 36.89 mN m^−1. In data set [3] (30° C.), the “πcmc (ability to reduce the surface tension)” value was 34.96 mN/m. In data set [3] (60° C.), the “Amin (minimum area per molecule)” value is 0.71 nm^2, the cmc came to 3.35e-05 mol/L, the “Γmax × 10^6 (maximum surface excess)” value is on record as 2.33 mol m^−2 and the “γcmc (surface tension at cmc)” value is listed as 33.68 mN m^−1. In addition, in data set [3] (60° C.), the “πcmc (ability to reduce the surface tension)” value came out at 38.07 mN/m.
Regarding “Oleyl Polyoxyethylene Amidopropyl Sulfobetaine [OPAS]”, in data set [1], the “Solubility and salt tolerance” value is “compatible and soluble with all kinds of water; also recorded: excellent solubility”; the “Precipitation or phase separation of solutions in FW, SW and DW” value is recorded as “no precipitation or phase separation was detected”; the “Precipitation or phase separation in formation water (FIG. 5)” value was “no signs of precipitation or phase separation”; the “Precipitation or phase separation in seawater (FIG. 4)” value is “no signs of precipitation or phase separation”. Also, the “Solubility in simulated SW and FW” value in data set [1] was “soluble”. Further, in data set [2], the “Thermal stability by TGA, stable up to” value was around 300 °C; the “Initial loss in weight” value came to 25%; the “Temperature of big weight loss / decomposition temperature (TGA)” value was determined as 295 °C. Besides, in data set [3] (30° C.), the “Amin (minimum area per molecule)” value was 0.77 nm^2, the cmc amounted to 3.66e-05 mol/L, the “Γmax × 10^6 (maximum surface excess)” value is reported as 2.15 mol m^−2 and the “γcmc (surface tension at cmc)” value was determined as 37.04 mN m^−1. Also, the “πcmc (ability to reduce the surface tension)” value in data set [3] (30° C.) was 35.59 mN/m. Besides, in data set [3] (60° C.), the “Amin (minimum area per molecule)” value is reported as 1.01 nm^2, the cmc amounted to 3.41e-05 mol/L, the “Γmax × 10^6 (maximum surface excess)” value came out at 1.64 mol m^−2 and the “γcmc (surface tension at cmc)” value is 33.74 mN m^−1. Moreover, the “πcmc (ability to reduce the surface tension)” value in data set [3] (60° C.) came to 38.26 mN/m.
Turning to “Oleyl Polyoxyethylene Amindopropyl Carboxybetaine [OPAC]”, in data set [1], the “Solubility and salt tolerance” value is “compatible and soluble with all kinds of water; also recorded: excellent solubility”; the “Precipitation or phase separation of solutions in FW, SW and DW” value is on record as “no precipitation or phase separation was detected”; the “Precipitation or phase separation in formation water (FIG. 5)” value is reported as “no signs of precipitation or phase separation”; the “Precipitation or phase separation in seawater (FIG. 4)” value is “no signs of precipitation or phase separation”. Also, the “Solubility in simulated SW and FW” value in data set [1] is “soluble”. Also, in data set [2], the “Thermal stability by TGA, stable up to” value was around 300 °C; the “Initial loss in weight” value was 30%; the “Temperature of big weight loss / decomposition temperature (TGA)” value amounted to 312 °C. In data set [3] (30° C.), the “Amin (minimum area per molecule)” value stood at 0.97 nm^2, the cmc came to 0.000346 mol/L, the “Γmax × 10^6 (maximum surface excess)” value is recorded as 1.70 mol m^−2 and the “γcmc (surface tension at cmc)” value stood at 34.67 mN m^−1. Moreover, the “πcmc (ability to reduce the surface tension)” value in data set [3] (30° C.) is given as 37.33 mN/m. In data set [3] (60° C.), the “Amin (minimum area per molecule)” value was 1.04 nm^2, the cmc was found to be 9.7e-05 mol/L, the “Γmax × 10^6 (maximum surface excess)” value is on record as 1.58 mol m^−2 and the “γcmc (surface tension at cmc)” value is recorded as 32.24 mN m^−1. Moreover, the “πcmc (ability to reduce the surface tension)” value in data set [3] (60° C.) was found to be 39.76 mN/m.
